Measured values reported in US20260306641A1, “HELICASE DEGRADERS” (priority 2023, published 2026).

Columns and labels:
[1] = system: HaCaT cells; test: BrdU labeling of DNA replication in synchronized HaCaT cells; format: cell-based, human; settings: for DNA replication (BrdU), early G1 treatment: added at time 0, 15 μM; for DNA replication (BrdU), early S-phase treatment: treated at 18 hrs, analyzed 3 hrs later, CA1/novobiocin 15 μM, etoposide 5 μM
Experimental: Verification of synchronization and determination of drug effects was performed by measuring the incorporation of bromo-deoxyuridine (BrdU) into replicating foci within nuclei. At times indicated, cells were pulse-labeled with 15 μM BrdU for 30 min, fixed with 4% paraformaldehyde, and analyzed by standard immunofluorescent techniques(40,51) with an anti-BrdU monoclonal antibody (Roche, clone no. BMC9318, RRID:AB_2313622). The average counts of three fields of 100 or more cells were used to determine the percentages of BrdU-labeled nuclei, +/−1 s.d.

[2] = system: solid tumor cell lines (NCI-60 set); settings: cited from earlier work
[3] = system: HaCaT cells; test: CellTiter-Glo viability, HaCaT cells; format: cell-based, human; settings: 72 hr
Experimental: Human keratinocytes (HaCaT; RRID:CVCL_0038), 143B cells (osteosarcoma; RRID:CVCL_2270), and HEK-293T (RRID:CVCL_0063) cells were maintained in Dulbecco's Modified Eagle's Medium (DMEM) supplemented with 10% fetal bovine serum (FBS; Peak Serum, PS-FB-2). Human Psn1 (pancreatic ductal adenocarcinoma; RRID:CVCL_1644) and H460 (non-small cell lung carcinoma; RRID:CVCL_0459) cells were cultured in RPMI-1640 medium supplemented with 10% FBS. HaCaT cells were synchronized in Go using serum starvation for 48 hr and released into the cell cycle by addition of DMEM with 10% FBS (51). Novobiocin (cat #46531) and Courmermycin-A1 (cat #C9270) were obtained from Sigma. Etoposide (cat #S1225) and AT7519 (cat #S1524) were obtained from SelleckChem. All stock solutions of inhibitors were stored at −20° C. as 10 mM suspensions in DMSO.
Cell viability determinations were performed using CellTiter-Glo Assays (Promega; cat #G7572). Cells were seeded in 96-well plates at a density of ~3×10^3 cells/well and treated with drugs for 72 hr, after which the cells were processed for viability using CellTiter-Glo reagent according to the instructions of the manufacturer. Each drug concentration test was performed using four replicates, and results averaged and plotted on graphs, +/−1 s.d.

[4] = system: T1, human CMG helicase (hCMG); test: hCMG ATPase activity, FP ADP^2 Transcreener assay; format: biochemical; settings: primary FP ATPase assay
T1 construct: made in house; host or cells: High Five insect cells, baculovirus (11 viruses co-infected)
T1 sequence (P49736 whole entry): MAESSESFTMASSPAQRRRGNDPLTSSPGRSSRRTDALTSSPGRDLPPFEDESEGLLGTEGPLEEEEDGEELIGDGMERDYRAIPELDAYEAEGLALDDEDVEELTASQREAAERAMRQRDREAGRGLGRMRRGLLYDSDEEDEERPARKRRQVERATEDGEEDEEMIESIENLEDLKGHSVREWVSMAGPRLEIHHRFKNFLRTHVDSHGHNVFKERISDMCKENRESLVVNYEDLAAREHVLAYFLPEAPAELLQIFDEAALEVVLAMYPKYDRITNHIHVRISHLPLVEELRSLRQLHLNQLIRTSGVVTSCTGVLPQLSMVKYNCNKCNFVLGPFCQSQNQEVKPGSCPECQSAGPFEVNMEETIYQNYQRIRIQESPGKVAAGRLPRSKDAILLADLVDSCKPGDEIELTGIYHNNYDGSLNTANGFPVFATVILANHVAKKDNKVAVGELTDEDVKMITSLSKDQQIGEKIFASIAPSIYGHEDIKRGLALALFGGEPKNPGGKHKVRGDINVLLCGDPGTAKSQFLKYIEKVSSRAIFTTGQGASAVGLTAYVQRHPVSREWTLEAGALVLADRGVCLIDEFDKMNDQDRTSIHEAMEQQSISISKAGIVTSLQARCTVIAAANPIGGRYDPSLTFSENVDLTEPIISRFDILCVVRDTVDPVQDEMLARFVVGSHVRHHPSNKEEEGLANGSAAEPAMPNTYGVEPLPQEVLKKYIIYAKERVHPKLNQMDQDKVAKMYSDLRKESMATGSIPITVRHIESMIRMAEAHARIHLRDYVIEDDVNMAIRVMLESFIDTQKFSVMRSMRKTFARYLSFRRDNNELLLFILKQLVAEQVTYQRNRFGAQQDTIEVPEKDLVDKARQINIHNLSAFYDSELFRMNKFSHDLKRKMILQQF
T1 sequence (P25205 whole entry, further chain): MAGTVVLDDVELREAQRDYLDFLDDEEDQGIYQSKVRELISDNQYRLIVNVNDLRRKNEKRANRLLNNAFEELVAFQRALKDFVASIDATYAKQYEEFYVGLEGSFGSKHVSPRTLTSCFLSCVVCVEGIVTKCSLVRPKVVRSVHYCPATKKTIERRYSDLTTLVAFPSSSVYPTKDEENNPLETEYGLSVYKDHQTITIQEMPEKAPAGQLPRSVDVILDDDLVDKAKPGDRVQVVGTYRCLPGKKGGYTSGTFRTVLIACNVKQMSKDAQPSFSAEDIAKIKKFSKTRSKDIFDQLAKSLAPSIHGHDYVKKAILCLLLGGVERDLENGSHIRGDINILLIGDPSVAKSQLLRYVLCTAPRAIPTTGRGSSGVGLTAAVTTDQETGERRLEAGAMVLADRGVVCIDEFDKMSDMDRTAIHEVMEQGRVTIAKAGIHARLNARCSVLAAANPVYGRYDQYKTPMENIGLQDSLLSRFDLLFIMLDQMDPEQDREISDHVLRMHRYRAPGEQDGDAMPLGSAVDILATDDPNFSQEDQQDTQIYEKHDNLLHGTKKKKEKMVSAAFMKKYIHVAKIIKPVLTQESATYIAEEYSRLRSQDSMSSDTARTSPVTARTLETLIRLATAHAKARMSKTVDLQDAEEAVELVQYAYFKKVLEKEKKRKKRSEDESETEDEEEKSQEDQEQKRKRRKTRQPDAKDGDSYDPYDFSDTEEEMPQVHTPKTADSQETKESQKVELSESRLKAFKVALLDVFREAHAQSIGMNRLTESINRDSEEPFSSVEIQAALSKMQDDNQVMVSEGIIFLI
T1 sequence (P33991 whole entry, further chain): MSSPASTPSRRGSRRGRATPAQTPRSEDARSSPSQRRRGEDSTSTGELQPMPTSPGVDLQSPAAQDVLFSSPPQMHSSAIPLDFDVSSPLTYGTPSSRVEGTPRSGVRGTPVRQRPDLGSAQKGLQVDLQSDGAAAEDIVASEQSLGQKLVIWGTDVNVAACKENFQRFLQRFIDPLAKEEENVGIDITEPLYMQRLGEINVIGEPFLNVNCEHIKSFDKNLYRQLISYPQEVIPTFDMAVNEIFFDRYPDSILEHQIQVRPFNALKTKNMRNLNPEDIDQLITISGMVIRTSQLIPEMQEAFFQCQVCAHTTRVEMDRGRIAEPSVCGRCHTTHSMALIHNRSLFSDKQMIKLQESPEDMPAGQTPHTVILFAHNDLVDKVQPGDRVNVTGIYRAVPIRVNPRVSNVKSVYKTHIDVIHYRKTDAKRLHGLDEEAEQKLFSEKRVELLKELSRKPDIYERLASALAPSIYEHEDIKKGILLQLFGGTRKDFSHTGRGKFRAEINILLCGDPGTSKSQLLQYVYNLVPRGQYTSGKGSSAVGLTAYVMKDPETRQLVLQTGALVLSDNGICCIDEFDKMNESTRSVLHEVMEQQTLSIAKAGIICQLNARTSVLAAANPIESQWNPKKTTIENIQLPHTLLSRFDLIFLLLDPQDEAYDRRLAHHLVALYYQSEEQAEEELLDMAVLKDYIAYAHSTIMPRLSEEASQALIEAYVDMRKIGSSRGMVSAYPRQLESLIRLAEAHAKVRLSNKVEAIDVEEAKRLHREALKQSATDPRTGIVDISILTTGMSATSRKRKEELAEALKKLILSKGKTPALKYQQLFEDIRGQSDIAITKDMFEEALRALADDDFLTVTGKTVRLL
T1 sequence (P33992 whole entry, further chain): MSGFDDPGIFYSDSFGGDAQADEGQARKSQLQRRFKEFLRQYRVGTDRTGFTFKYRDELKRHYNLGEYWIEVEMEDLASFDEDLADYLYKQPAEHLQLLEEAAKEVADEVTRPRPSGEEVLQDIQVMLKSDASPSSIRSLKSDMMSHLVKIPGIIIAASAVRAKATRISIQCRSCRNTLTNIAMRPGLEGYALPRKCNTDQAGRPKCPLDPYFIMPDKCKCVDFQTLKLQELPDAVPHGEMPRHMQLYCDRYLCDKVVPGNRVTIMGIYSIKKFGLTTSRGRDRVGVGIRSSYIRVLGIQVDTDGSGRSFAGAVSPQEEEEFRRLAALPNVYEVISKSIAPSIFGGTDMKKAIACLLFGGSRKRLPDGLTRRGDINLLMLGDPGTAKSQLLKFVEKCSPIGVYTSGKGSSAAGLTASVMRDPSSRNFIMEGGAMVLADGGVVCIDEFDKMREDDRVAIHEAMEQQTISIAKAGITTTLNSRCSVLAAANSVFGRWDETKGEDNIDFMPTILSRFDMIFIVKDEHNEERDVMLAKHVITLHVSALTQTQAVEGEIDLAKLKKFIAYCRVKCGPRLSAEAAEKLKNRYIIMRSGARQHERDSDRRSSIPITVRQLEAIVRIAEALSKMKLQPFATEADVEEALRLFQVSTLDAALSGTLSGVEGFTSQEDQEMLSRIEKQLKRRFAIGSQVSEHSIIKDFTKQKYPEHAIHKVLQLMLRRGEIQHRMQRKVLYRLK
T1 sequence (Q14566 whole entry, further chain): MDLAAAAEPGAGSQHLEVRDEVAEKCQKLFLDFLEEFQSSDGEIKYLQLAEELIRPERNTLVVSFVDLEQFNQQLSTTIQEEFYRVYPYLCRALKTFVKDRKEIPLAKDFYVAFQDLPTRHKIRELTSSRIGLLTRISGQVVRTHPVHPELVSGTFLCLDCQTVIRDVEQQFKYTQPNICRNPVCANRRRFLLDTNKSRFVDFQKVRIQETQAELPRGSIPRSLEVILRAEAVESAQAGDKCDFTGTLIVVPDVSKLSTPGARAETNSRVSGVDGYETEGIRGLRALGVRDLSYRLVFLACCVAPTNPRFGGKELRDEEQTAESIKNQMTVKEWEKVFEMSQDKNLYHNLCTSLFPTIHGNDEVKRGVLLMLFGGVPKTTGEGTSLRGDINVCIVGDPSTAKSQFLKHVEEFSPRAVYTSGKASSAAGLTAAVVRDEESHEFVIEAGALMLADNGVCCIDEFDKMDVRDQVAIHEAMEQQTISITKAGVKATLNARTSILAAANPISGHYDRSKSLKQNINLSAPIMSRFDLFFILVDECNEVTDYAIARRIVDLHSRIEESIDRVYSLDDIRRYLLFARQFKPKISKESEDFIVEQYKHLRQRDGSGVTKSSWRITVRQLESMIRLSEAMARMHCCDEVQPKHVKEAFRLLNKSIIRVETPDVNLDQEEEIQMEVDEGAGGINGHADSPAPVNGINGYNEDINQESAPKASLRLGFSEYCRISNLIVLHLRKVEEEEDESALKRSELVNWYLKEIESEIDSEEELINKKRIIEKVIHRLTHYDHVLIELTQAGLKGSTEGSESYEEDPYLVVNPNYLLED
T1 sequence (P33993 whole entry, further chain): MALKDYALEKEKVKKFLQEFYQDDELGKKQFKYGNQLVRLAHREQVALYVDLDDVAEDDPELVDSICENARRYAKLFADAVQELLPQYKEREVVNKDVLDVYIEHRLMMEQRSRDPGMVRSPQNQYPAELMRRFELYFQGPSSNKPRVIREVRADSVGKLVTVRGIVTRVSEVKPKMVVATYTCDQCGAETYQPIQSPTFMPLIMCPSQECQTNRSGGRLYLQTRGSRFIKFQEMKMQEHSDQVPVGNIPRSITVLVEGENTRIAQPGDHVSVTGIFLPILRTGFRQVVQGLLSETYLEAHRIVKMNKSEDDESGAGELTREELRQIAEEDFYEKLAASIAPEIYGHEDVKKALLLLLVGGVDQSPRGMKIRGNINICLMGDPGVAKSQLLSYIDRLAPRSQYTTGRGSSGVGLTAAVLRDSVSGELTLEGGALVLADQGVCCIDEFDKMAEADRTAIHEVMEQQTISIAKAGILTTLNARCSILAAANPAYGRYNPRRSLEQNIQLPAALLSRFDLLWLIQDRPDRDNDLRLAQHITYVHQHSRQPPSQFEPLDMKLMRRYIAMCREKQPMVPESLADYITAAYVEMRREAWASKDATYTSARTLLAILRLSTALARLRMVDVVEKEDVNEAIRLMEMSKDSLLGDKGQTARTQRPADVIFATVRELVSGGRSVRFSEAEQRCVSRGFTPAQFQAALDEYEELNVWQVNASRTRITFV
Experimental: The fluorescent-polarization (FP) ADP-sensing assays were performed using the Transcreener® ADP^2 FP assay kit (cat #3010-1K, Bellbrook Labs). For hCMG inhibitor screening, assays were performed at 37° C. for 1 hr in 10 μl reactions in a 384-well plate (cat. #4514, Corning) using 2 μL of hCMG (~15 fmol), 25 mM Hepes-NaOH (pH 7.5), 10 mM NaCl, 0.5 mM ATP, 10 mM magnesium acetate, 1 mM DTT, 0.1 mg/ml BSA, and DNA fork substrates. […] Selected inhibitors or samples from a chemical library were added into the reactions when conducting the screening or testing inhibitor effectiveness. The NCI Diversity Set VI chemical library was obtained from the National Cancer Institute (Bethesda, MD).
The window of sensitivity for the ADP-sensing assays is determined by setting up two 10 μL control samples without any added hCMG helicase: a Low-FP mixture (4 nM ADP Alexa Fluor-633 Tracer alone) and a High-FP mixture (4 nM ADP Alexa Fluor-633 Tracer plus patented anti-ADP^2 Antibody). The amount of ADP^2 Antibody used had to be adjusted to account for the use of 500 μM ATP in our hCMG assays, versus 10 μM ATP in enzyme reactions typically assessed with standard kits prepared by BellBrook Labs. […] This was done according to the manufacturer by performing a titration with increasing ADP^2 Antibody, fixed 4 nM ADP Alexa Fluor-633 Tracer, and 500 μM ATP to determine the ~EC80-85 for millipol (mP) changes, which determined the optimal ADP^2 Antibody concentration to use as 0.64 mg/ml (FIG. 9A). Samples are read with a Perkin Elmer Envision II plate reader with optimized Cy5 (far-red) FP-compatible mirror and cubes (cat #2100-8390, Perkin Elmer). The Low-FP sample is the least polarized and gives a low mP reading, while the High-FP sample is the most polarized and gives the highest mP reading. The difference between the Low-FP and High-FP values defines the FP assay window, which is normally in a range of 150-200 mP under ideal conditions for screening purposes. The hCMG helicase hydrolyzes ATP to ADP and decreases the mP reading within this window, with an ideal change (ΔmP) in the FP window of at least 50% to be in a readable range for inhibitor screening (as per manufacturer). Potential hCMG chemical inhibitors reverse this effect and cause the mP readings to increase.
We performed a titration with increasing and decreasing concentrations of ADP and ATP, respectively, to assess the sensitivity of the FP assay in detecting ADP production (FIG. 9B). Consistent with the stated manufacturer predictions, the assay can reliably detect 1-3% changes in ADP production (i.e., 5-15 μM ADP production) in starting concentrations of ATP of 500 μM, with a Z′ efficiency between 0.6-0.8 (determined following manufacturer protocols).
Once the hCMG enzyme reactions are complete, 10 μL of 1× Stop Solution and Detection Buffer (buffer from BellBrook Labs; containing 4 nM ADP Alexa Fluor-633 Tracer plus ADP^2 Antibody) are added to each reaction, and to the High-FP control. The Low-FP control receives 10 μL of 1× Stop Solution and Detection Buffer containing only 4 nM ADP Alexa Fluor-633 Tracer (no Antibody). Samples are incubated at 25° C. for 1 hr, then read in the plate reader. […] Plate readings from these tests of potential positive hits should be similar to that seen with the Low-FP control, or such hits may instead be false-positives.

[5] = system: HSP90; settings: cited from earlier work

| Structure (SMILES) | DNA replication (BrdU), early G1 treatment [1] | DNA replication (BrdU), late-G1 treatment ([1]; treated at 12 hrs, assessed at 18 hrs) | DNA replication (BrdU), early S-phase treatment [1] | growth suppression of solid tumor cell lines [2] | IC50 ([3]; Homo sapiens, HaCaT) [µM] | inhibition of hCMG ATP hydrolysis [4] | doses required to inhibit HSP90 [5] [µM] | effect on HaCaT viability [3] |
| --- | --- | --- | --- | --- | --- | --- | --- | --- |
| CO[C@@H]1[C@@H](OC(=O)c2ccc(C)[nH]2)[C@@H](O)[C@H](Oc2ccc3c(O)c(NC(=O)c4c[nH]c(C(=O)Nc5c(O)c6ccc(O[C@@H]7OC(C)(C)[C@H](OC)[C@@H](OC(=O)c8ccc(C)[nH]8)[C@H]7O)c(C)c6oc5=O)c4C)c(=O)oc3c2C)OC1(C)C [CA1] | inhibits DNA replication | fail to undergo DNA replication | effectively suppressed DNA replication | sensitive to similar low micromolar concentrations | ~15 | potent inhibitor of ATP hydrolysis by the hCMG | 700 to 1000 |  |
| CO[C@@H]1[C@@H](OC(N)=O)[C@@H](O)[C@H](Oc2ccc3c(O)c(NC(=O)c4ccc(O)c(CC=C(C)C)c4)c(=O)oc3c2C)OC1(C)C [novobiocin] | little effect |  | did not | largely insensitive |  | very little inhibitory effect on the hCMG | 700 to 1000 | little effect on viability |
